# Laboratory results as given in PubChem BioAssay (NCI).
#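 Test compounds were applied to cells in 96-well plates for 48 hours at 5 doses. GI50: concentration for 50% inhibition of growth. The concentration for full growth arrest is given as TGI.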
# What was measured:
# Experiment in all cases: NCI tumour cell line growth inhibition, 48 h
# ACHN renal = system: ACHN renal
# SR leukemia = system: SR leukemia
# RPMI-8226 leukemia = system: RPMI-8226 leukemia
# RXF 393 renal = system: RXF 393 renal
# M14 melanoma = system: M14 melanoma
# LOX IMVI melanoma = system: LOX IMVI melanoma
# MCF7 breast = system: MCF7 breast
# SK-MEL-2 melanoma = system: SK-MEL-2 melanoma
# SF-268 CNS = system: SF-268 CNS
# TK-10 renal = system: TK-10 renal
Structure (SMILES),TGI (ACHN renal) [µM],TGI (SR leukemia) [µM],TGI (RPMI-8226 leukemia) [µM],TGI (RXF 393 renal) [µM],TGI (M14 melanoma) [µM],TGI (LOX IMVI melanoma) [µM],TGI (MCF7 breast) [µM],TGI (SK-MEL-2 melanoma) [µM],TGI (SF-268 CNS) [µM],TGI (TK-10 renal) [µM],GI50 (SR leukemia) [µM],GI50 (TK-10 renal) [µM],GI50 (RPMI-8226 leukemia) [µM],GI50 (RXF 393 renal) [µM],GI50 (SK-MEL-2 melanoma) [µM]
CC1(C)OCC2OC3([C@@H]4OC(C)(C)O[C@H]4CO)OC(C)(C)OC3C2O1 (stereo partly drawn),> 100,> 100,> 100,> 100,> 100,> 100,> 100,> 100,,,,,,,
COc1ccc(-c2c3c(n(C4OC(CO)C(O)C(O)C4O)c(=S)c2C#N)CCC3)cc1 (stereo not drawn),> 100,> 100,> 100,63.6,> 100,> 100,> 100,> 100,> 100,> 100,,,,,
O=C1C=CC(=O)N1n1c(-c2ccccc2)n[nH]c1=O,,> 100,,> 100,> 100,,> 100,> 100,> 100,> 100,,,,,
O=C1NC2CCCCC2N=C1CC(=O)c1ccc(Br)cc1 (stereo not drawn),> 100,> 100,7.16,> 100,> 100,> 100,> 100,> 100,> 100,> 100,,,,,
Cc1cc2c(O)c(c1)CN(CC(=O)O)Cc1cc(C)cc(c1O)CN(CC(=O)O)Cc1cc(C)cc(c1O)CN(CC(=O)O)C2,> 100,> 100,> 100,> 100,> 100,> 100,> 100,> 100,> 100,> 100,,,,,
CC1C(NNc2ccccc2)Oc2cc3c(cc2C1c1ccccc1O)OCO3 (stereo not drawn),13.1,11.6,24.7,45.9,11.2,28.6,16.8,25.6,32.6,18.3,,,,,
COc1ccc(C2C3=C(COC3=O)Oc3cc4c(cc32)OCO4)c(OC)c1 (stereo not drawn),> 100,> 100,> 100,51,> 100,> 100,> 100,,> 100,> 100,,,,,
O=C(CCc1cc(O)cc(O)c1)NCCCNC(=O)CCc1cc(O)cc(O)c1,> 100,> 100,> 100,> 100,> 100,> 100,> 100,> 100,> 100,> 100,,,,,
CC(C)C(CC(=O)OCC(CO)OC(=O)CC(C(C)C)C(C)C)C(C)C (stereo not drawn),24.3,> 100,,30.8,29.5,,33.5,35.2,27.6,26.3,,,,,
N#CC1(O)CCCCCCCCCCC1,> 100,> 100,> 100,> 100,> 100,> 100,> 100,> 100,> 100,> 100,,,,,
CN(C)CCCNC(=O)c1cc(NC(=O)c2cc(NC(=O)CCCn3c4ccccc4c4ccccc43)cn2C)cn1C,> 65.9,4.82,39.3,37.8,12.3,> 50.9,39,> 79.9,41.6,39.3,2.24,,,,
Cn1c(=O)c(-c2ccccc2)c(O)c2ccccc21,> 100,> 100,> 100,> 100,,> 100,> 100,,> 100,> 100,,,,,
CC1CCC2(NC1)OC1CC3C4CC=C5CC(OC6OC(CO)C(OC7OC(C)C(O)C(O)C7O)C(O)C6OC6OC(C)C(O)C(O)C6O)CCC5(C)C4CCC3(C)C1C2C (stereo not drawn),14.6,27.8,32.5,26.5,6.39,19.9,4.88,9.07,4.05,15.1,,,,,
CCC(O)(Cc1ccc(OC)cc1)c1ccc(OC)cc1 (stereo not drawn),> 100,> 100,> 100,> 100,> 100,> 100,> 100,> 100,> 100,> 100,,,,,
CCC(CO)Nc1nc(NCc2ccccc2)c2ncn(C(C)C)c2n1 (stereo not drawn),> 100,19,> 100,20.9,32.7,> 100,> 57.3,38.9,40.4,> 84.6,,,,,
CC(=O)OCC1OC(n2c(-c3ccccc3)c(N=Nc3ccccc3)c(C)c(C#N)c2=S)C(OC(C)=O)C(OC(C)=O)C1OC(C)=O (stereo not drawn),> 100,> 100,> 100,> 100,> 100,> 100,> 100,> 100,> 100,> 100,,,,,
CCCCC1=C(C(=O)N2CCOCC2)C2(OCCO2)C1=O,34.8,> 100,,50.3,43.8,25.4,> 100,71.7,86.7,> 100,,,,,
CCc1c(CNc2ccc(C(=O)NC(CC(=O)O)C(=O)O)cc2)ccc2nc(N)nc(N)c12 (stereo not drawn),> 1000,> 1000,> 1000,> 1000,> 1000,> 1000,> 1000,> 1000,> 1000,> 1000,,> 1000,1.28,> 1000,> 1000
COc1ccccc1C1Nn2c(nc3ccccc3c2=O)N1c1ccc(C)cc1 (stereo not drawn),16.7,6.43,25.9,24,26.4,20.8,26.3,25.3,25.1,22.7,,,,,
Cc1c(CN2CCN(C)CC2)c(CN2CCN(C)CC2)c(C)n1-c1ccc(Cl)cc1,> 100,40.8,> 100,> 100,32,,> 100,46.2,> 100,47.8,,,,,
